Data set [1] deals with Suptl cells (T-lymphocyte cell line). As to the kind of experiment: Cytotoxicity assay (MTT). Format: cell-based. As to the method: (§1) The T-lymphocyte cell line (Suptl) was cultured in an RPMI 1640 medium (GIBICO). The cultures were supplemented with 10% Fetal Bovine Serum (SFB; HyClone, Logan, Utah, USA), 100 U/mL of penicillin and […] of streptomycin, and incubated at 37° C., in an atmosphere of 5% CO2. Virus stocks were prepared using the methodology described by Souza and Denizot (SOUZA, T. M. L; RODRIGUES, D. Q.; […], V. F.; MARQUES, I. P.; DE SOUZA, M. C. B. V.; […], I. C. P. P.; BOU-HABIB, D. C; FONTES, C. F. L. Characterization of HIV-1 enzyme reverse transcriptase inhibition by the compound 6-chloro-1.4-dihydro-4-oxo-1-(β-D-ribofuranosyl) quinoline-3-carboxylic acid through kinetic and in silico studies. Current HIV Research, v. 7, No 3, page 327-335, 2009. DENIZOT, F.; LANG, R. Rapid colorimetric assay for cell growth and survival. Modifications to the tetrazolium dye procedure giving improved sensitivity and reliability. The Journal of Immunological Methods, v. 89, No 2, page 271-277, 1986).
(§2) . They were then run through an MTT assay (3-(4,5-dimethylazol-2-yl)-2.5-diphenyl tetrazolium bromide) in order to analyze cell induction infeasibility. MTT is a colorimetric method that measures mitochondrial dehydrogenase activity based on the ability of live cells to reduce 3-(4,5-methylazol-2-yl)-2.5-diphenyl tetrazolium bromide salt in the product. A […] solution of 3-(4,5-dimethylthiazol-2-yl)-2.5-diphenyl tetrazolium bromide (1 mg/ml) (MTT, Sigma) was thus added to the cells, kept in Dulbecco's Modified Eagle's medium (DMEM) without serum. The MTT was removed after three hours and, after adding […] of isopropanol acid (0.04N HCl in isopropanol), the optical density (OD) was determined using a wavelength range of 570 to 690 nm, according to KUO et al (KUO, Y. C; CHEN, C. C; TSA, W. J.; HO, Y. H. Regulation of type 1 herpes simplex virus replication in vero cells by Psychotriaserpens: relationship to gene expression, DNA replication, and protein synthesis. Antiviral Research, v. 51, No 2, pages 95 to 109, 2001). The dye coloring has different optical densities, depending on mitochondrial metabolism after treating cells with different concentrations of the new derivatives or the absence thereof. The 50% cytotoxic concentration (CC50) was calculated through linear regression analysis from the dose-response curve obtained from experimental data.

Data set [2] addresses T1, recombinant HIV-1 reverse transcriptase (RTHXB2) (Human immunodeficiency virus type 1 group M subtype B, UniProt P04585).
T1 construct: The enzyme is derived from a polyprotein encoded by the virus, processed by the viral protease
As to the kind of experiment: Reverse transcriptase inhibition activity (RDDP, [3H]dTTP incorporation). Format: biochemical. Conditions: for IS: CC50 / CI50. As to the method: Reverse Transcriptase Inhibition Activity
The RDDP activity was determined in 50 mM Tris HCl (pH 7.8), 6 mM MgCl2, 1 mM dithiothreitol, 50 mM KCl, 5 μM dTTP, […] poly (rA) oligo (dT) template primer (Pharmacia, Piscataway, N.J., USA) and 3 U of enzyme (one unit is the enzyme concentration incorporating dTTP […] per minute per mg of enzyme at 37° C. under standard conditions). The reaction isotope dilutions were prepared at 2 μCi of [3H] dTTP (49 Ci/mmol)/2,7μ dTTP. The reaction was initiated at 37° C., incubated for 30 minutes and halted with 0.5M EDTA. The precipitate was collected on Whatman 81 filter paper and washed with 0.1 M sodium phosphate. The incorporated nucleotides were measured by liquid scintillation. The 50% inhibitory concentration (Ciso) was determined by linear regression analysis of the dose-response curve obtained from experimental data. The polymerization reaction was conducted in the presence and absence of test substances, as well as the presence and absence of standards.
All tests were conducted on three separate occasions. At least three independent experiments were performed and triplicates were run for each concentration.

The nature of data set [3]: Cytotoxicity assay (MTT). Conditions: human. The format is cell-based. As to the method:
as §1, §2

Setting [4] is: 50% inhibitory concentration, mean of three independent experiments, read-out: CI50 (the source's name).
The mark [5] stands for this setting: 50% cytotoxic concentration, 72 hours, MTT, read-out: CC50.
Setting [6] is: Suptl cells (T-lymphocyte cell line), 50% cytotoxic concentration, 72 hours, MTT, read-out: CC50.

Molecules are shown by their SMILES. Where two headings read alike, the source gives them in different places.

The CC50 is the concentration giving 50% cytotoxicity. Regarding `C[C@H](Cn1cnc2c(N)ncnc21)OCP(=O)(O)O` [Tenofovir, reference compound], the cytotoxic concentration (CC50) in data set [1] was 680 µM. Besides, the IC50 in data set [2] (setting [4]) was 1.2 µM. The IS in data set [2] amounted to 567.
As to `Cc1ccc2c(c1)C(F)(F)C(=O)N2Cc1cn(C2CC(n3cc(C)c(=O)[nH]c3=O)OC2CO)nn1` (centres unmarked) [IIIb, 1-(4-(4-((3,3-difluor-5-methyl-2-oxoindolin-1-yl)methyl)-1H-1,2,3-triazole-1-yl)-5-(hydroxymethyl)tetrahydrofuran-2-yl)-5-methylpyrimidine-2.4(1H,3H)-dione], the CC50 in data set [1] (setting [5]) was more than 100 µM. Further, the IC50 in data set [2] (setting [4]) turned out to be 3.2 µM.
`CCOP(=O)(Cn1cc(CN2C(=O)C(O)(C#CC3CC3)c3cc(Cl)ccc32)nn1)OCC` (centres unmarked) [IIf, diethyl ((4-((5-chloro-3-(cyclopropylethanol)-3-hydroxy-2-oxoindolin-1-yl)methyl)-1H-1,2,3-triazole-1-yl)methyl) phosphonate]: the CC50 in data set [1] (setting [5]) is more than 100 µM. Also, the IC50 in data set [2] (setting [4]) is 3.2 µM.
Regarding `Cc1ccnc2c1NC(=O)c1cccnc1N2C1CC1` [Nevirapine, reference compound], the cytotoxic concentration (CC50) at 72 h in data set [3] (setting [6]) turned out to be 895 µM. Also, in data set [2], the IS was determined as 746.
On to `Cc1cn([C@H]2C[C@H](N=[N+]=[N-])[C@@H](CO)O2)c(=O)[nH]c1=O` [Zidovudine, reference compound], for which the CC50 at 72 h in data set [3] came out at 126 µM. Moreover, in data set [2], the IC50 came to 0.01 µM and the IS was 12,600.
In the case of `Cc1cn(C2CC(n3cc(CN4C(=O)C(O)(C#CC5CC5)c5cc(Cl)ccc54)nn3)C(CO)O2)c(=O)[nH]c1=O` (centres unmarked) [IIc], in data set [3] (setting [6]), the CC50 at 72 h is more than 100 µM. Also, the IC50 in data set [2] was found to be 3.1 µM.
For the compound `CCOP(=O)(Cn1cc(CN2C(=O)C(O)(C#CC3CC3)c3cc(C)ccc32)nn1)OCC` (centres unmarked) [IIe, diethyl ((4-((3-(cyclopropylethanol)-3-hydroxy-5-methyl-2-oxoindolin-1-yl)methyl-1,2,3-triazole-1-yl)methyl) phosphonate], the CC50 at 72 h in data set [3] (setting [5]) was more than 100 µM. In data set [2], the IC50 turned out to be 1.8 µM.
With `Cc1ccc2c(c1)C(O)(C#CC1CC1)C(=O)N2Cc1cn(C2CC(n3cc(C)c(=O)[nH]c3=O)OC2CO)nn1` (centres unmarked) [IIb, 1-(4-(4-((3-(cyclopropylethanol)-3-hydroxy-5-methyl-2-oxoindolin-1-yl)methyl)-1H-1,2,3-triazole-1-yl)-5-(hydroxymethyl)tetrahydrofuran-2-yl)-5-methylpyrimidine-2.4(1H,3H)-dione], in data set [3] (setting [6]), the 50% cytotoxic concentration (CC50) at 72 h was more than 100 µM. The IC50 in data set [2] was found to be 3.3 µM.
As for `Cc1ccc2c(c1)C(=O)C(=O)N2Cc1cn(C2CC(n3cc(C)c(=O)[nH]c3=O)OC2CO)nn1` (centres unmarked) [Ib], in data set [3] (setting [6]), the half-maximal cytotoxic concentration (CC50) at 72 h was more than 100 µM. Also, in data set [2], the IC50 was determined as 1.9 µM.
Regarding `Cc1cn(C2CC(n3cc(CN4C(=O)C(=O)c5cc(Cl)ccc54)nn3)C(CO)O2)c(=O)[nH]c1=O` (centres unmarked) [Ic, 5-chloro-1-((1-(2-(hydroxymethyl)-5-(5-methyl-2.4-dioxo-3.4-dihydropyrimidine-1(2H)-yl)tetrahydrofuran-3-yl)-1H-1,2,3-triazole-4-yl)methyl)indolin-2.3-dione], the half-maximal cytotoxic concentration (CC50) at 72 h in data set [3] (setting [6]) is more than 100 µM. In addition, in data set [2], the IC50 came out at 1.9 µM.
As to `CC(C)CN(CC(O)C(Cc1ccccc1)NC(=O)OC1CCOC1)S(=O)(=O)c1ccc(-n2cc(CN3C(=O)C(=O)c4ccccc43)nn2)cc1` [Id, tetrahydrofuran-3-yl ((2S)3R)-4-(4-(4-((2.3-dioxoindolin-1-yl)methyl)-1H-1,2,3-triazole-1-yl)-N-isobutylphenylsulfonamide)-3-hydroxy-1-phenylbutan-2-yl) carbamate], the CC50 at 72 h in data set [3] (setting [6]) was more than 100 µM. For the same compound, the IC50 in data set [2] amounted to 1.5 µM.
As to `Cc1cn(C2CC(n3cc(CN4C(=O)C(O)(C#CC5CC5)c5ccccc54)nn3)C(CO)O2)c(=O)[nH]c1=O` (centres unmarked) [IIa], the cytotoxic concentration (CC50) at 72 h in data set [3] (setting [6]) is more than 100 µM. Further, the IC50 in data set [2] was 2.1 µM.
For the compound `Cc1ccc2c(c1)C(=O)C(=O)N2Cc1cn(-c2ccc(S(=O)(=O)N(CC(C)C)CC(O)C(Cc3ccccc3)NC(=O)OC3CCOC3)cc2)nn1` [Ie, tetrahydrofuran-3-yl ((2S,3R)-3-hydroxy-4-(N-isobutyl-4-(4-((5-methyl-2.3-dioxoindolin-1-yl)methyl)-1H-1,2,3-triazole-1-yl)phenylsulfonamide)-1=phenylbutan-2-yl)carbamate], in data set [3] (setting [6]), the CC50 at 72 h was more than 100 µM. For the same compound, in data set [2], the IC50 turned out to be 0.9 µM; the “RT enzyme inhibition activity compared with benchmarks (in words)” value is “more active than the nevirapine and tenofovir benchmarks”.
For the compound `Cc1cn(C2CC(n3cc(CN4C(=O)C(F)(F)c5cc(Cl)ccc54)nn3)C(CO)O2)c(=O)[nH]c1=O` (centres unmarked) [IIIc, 1-(4-(4-((5-chloro-3.3-difluor-2-oxoindolin-1-yl)methyl)-1H-1,2,3-triazole-1-yl)-5-(hydroxymethyl)tetrahydrofuran-2-yl)-5-methylpyrimidine-2.4(1H,3H)-dione], the CC50 in data set [1] (setting [5]) was found to be 1050 µM. Also, in data set [2], the “RT enzyme inhibition activity compared with benchmarks (in words)” value is “more active than the nevirapine and tenofovir benchmarks”; the IS was found to be 1318. For the same compound, in data set [2] (setting [4]), the IC50 was found to be 0.8 µM.
On to `CCOP(=O)(Cn1cc(CN2C(=O)C(=O)c3cc(C)ccc32)nn1)OCC` [Ig, diethyl ((4-((5-methyl-2.3-dioxoindolin-1-yl)methyl)-1H-1,2,3-triazole-1-yl)methyl) phosphonate], for which, in data set [3] (setting [5]), the CC50 at 72 h is 2060 µM. Further, in data set [2], the IC50 turned out to be 0.7 µM; the “RT enzyme inhibition activity compared with benchmarks (in words)” value was “more active than the nevirapine and tenofovir benchmarks”; the IS is on record as 2,940.
Consider `CCOP(=O)(Cn1cc(CN2C(=O)C(O)(C#CC3CC3)c3ccccc32)nn1)OCC` (centres unmarked) [IId], for which the half-maximal cytotoxic concentration (CC50) at 72 h in data set [3] (setting [5]) was more than 100 µM. Also, in data set [2], the IC50 amounted to 3.5 µM.
Regarding `O=C1Nc2ccc(Cl)cc2[C@@](C#CC2CC2)(C(F)(F)F)O1` [Efavirenz, reference compound], the 50% cytotoxic concentration (CC50) at 72 h in data set [3] (setting [6]) was 88 µM.
In the case of `Cc1cn(C2CC(n3cc(CN4C(=O)C(=O)c5ccccc54)nn3)C(CO)O2)c(=O)[nH]c1=O` (centres unmarked) [Ia, 1-((1-(2-(hydroxymethyl)-5-(5-methyl-2.4-dioxo-3.4-dihydropyrimidine-1(2H)-yl)tetrahydrofuran-3-yl)-1H-1,2,3-triazole-4-yl)methyl)indolin-2.3-dione], the CC50 at 72 h in data set [3] (setting [6]) was more than 100 µM. The IC50 in data set [2] worked out at 2.5 µM.
`CCOP(=O)(Cn1cc(CN2C(=O)C(=O)c3ccccc32)nn1)OCC` [If, diethyl ((4-((2.3-dioxoindolin-1-yl)methyl)-1H-1,2,3-triazole-1-yl)methyl) phosphonate]: the 50% cytotoxic concentration (CC50) at 72 h in data set [3] (setting [5]) is 2320 µM. Besides, in data set [2], the IC50 was found to be 1.3 µM and the IS is given as 1,782.
In the case of `CCOP(=O)(Cn1cc(CN2C(=O)C(F)(F)c3ccccc32)nn1)OCC` [IIId, diethyl ((4-((3,3-difluor-2-oxoindolin-1-yl)methyl)-1H-1,2,3-triazole-1-yl)methyl) phosphonate], the CC50 in data set [1] (setting [5]) is 1500 µM. For the same compound, in data set [2] (setting [4]), the IC50 is 1.2 µM. For the same compound, the IS in data set [2] was 1247.
For the compound `CCOP(=O)(Cn1cc(CN2C(=O)C(=O)c3cc(Cl)ccc32)nn1)OCC` [Ih, diethyl ((4-((5-chloro-2.3-dioxoindolin-1-yl)methyl)-1H-1,2,3-triazole-1-yl)methyl) phosphonate], the CC50 at 72 h in data set [3] (setting [5]) is more than 100 µM. Also, in data set [2], the IC50 turned out to be 1.2 µM.

Values taken from patent publication US10538515B2, “Isatin-derived compounds, use of the compounds for the treatment of AIDS and method of treatment using these compounds” (FUNDAÇÄO OSWALDO CRUZ, priority 2016, dated 2020).
